{"source": "ChEMBL document CHEMBL4507292", "about": "(2021)", "key": {"[1]": {"molecular_target": "Bombesin receptor (Rattus norvegicus) (UniProt P52500+P24053+Q8K418)", "experiment": "Bombesin, Non-Selective Eurofins-Panlabs radioligand binding assay", "assay_type": "protein assay", "settings": "Compound concentration 10.0 uM; call rule not given here"}, "[2]": {"molecular_target": "Inositol 1,4,5-trisphosphate-gated calcium channel ITPR1 (Homo sapiens) (UniProt Q14643)", "experiment": "Inositol Trisphosphate IP3 Eurofins-Panlabs radioligand binding assay", "settings": "Rattus norvegicus; Compound concentration 10.0 uM"}, "Bos taurus": {"organism": "Bos taurus", "experiment": "(§1) Phosphodiesterase PDE6 Eurofins-Panlabs enzyme assay", "design": "substrate with concentration [3H] cGMP + cGMP, incubation time 20 min, incubation temperature 25 °C"}, "[3]": {"experiment": "as §1", "design": "species or system Bos taurus; substrate with concentration [3H] cGMP + cGMP, incubation time 20 min, incubation temperature 25 °C"}, "[4]": {"molecular_target": "Galanin receptor type 1 (Homo sapiens) (UniProt P47211)", "sequence (P47211 whole entry)": "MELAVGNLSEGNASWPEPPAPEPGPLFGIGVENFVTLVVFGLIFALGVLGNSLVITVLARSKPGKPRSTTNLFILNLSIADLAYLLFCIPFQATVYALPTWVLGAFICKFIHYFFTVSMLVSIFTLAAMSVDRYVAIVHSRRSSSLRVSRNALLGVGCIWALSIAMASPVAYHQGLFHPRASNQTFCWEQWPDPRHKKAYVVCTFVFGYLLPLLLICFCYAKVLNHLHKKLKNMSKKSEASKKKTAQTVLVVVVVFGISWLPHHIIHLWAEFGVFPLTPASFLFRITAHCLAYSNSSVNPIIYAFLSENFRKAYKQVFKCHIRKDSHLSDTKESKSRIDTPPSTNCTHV", "experiment": "Galanin GAL1 Eurofins-Panlabs radioligand binding assay", "settings": "Compound concentration 10.0 uM"}, "[5]": {"molecular_target": "Prostaglandin G/H synthase 2 (Homo sapiens, UniProt P35354)", "experiment": "(§2) Inhibition of Cyclooxygenase COX-2 at compound concentration of 10.0 uM in the Eurofins-Panlabs enzyme assay (Eurofins_assay_118010)", "design": "substrate with concentration 0.3 uM Arachidonic acid, incubation time 15 min, incubation temperature 37 C"}, "[6]": {"molecular_target": "T1, Prostaglandin G/H synthase 2 (Homo sapiens) (UniProt P35354)", "T1 sequence (whole entry)": "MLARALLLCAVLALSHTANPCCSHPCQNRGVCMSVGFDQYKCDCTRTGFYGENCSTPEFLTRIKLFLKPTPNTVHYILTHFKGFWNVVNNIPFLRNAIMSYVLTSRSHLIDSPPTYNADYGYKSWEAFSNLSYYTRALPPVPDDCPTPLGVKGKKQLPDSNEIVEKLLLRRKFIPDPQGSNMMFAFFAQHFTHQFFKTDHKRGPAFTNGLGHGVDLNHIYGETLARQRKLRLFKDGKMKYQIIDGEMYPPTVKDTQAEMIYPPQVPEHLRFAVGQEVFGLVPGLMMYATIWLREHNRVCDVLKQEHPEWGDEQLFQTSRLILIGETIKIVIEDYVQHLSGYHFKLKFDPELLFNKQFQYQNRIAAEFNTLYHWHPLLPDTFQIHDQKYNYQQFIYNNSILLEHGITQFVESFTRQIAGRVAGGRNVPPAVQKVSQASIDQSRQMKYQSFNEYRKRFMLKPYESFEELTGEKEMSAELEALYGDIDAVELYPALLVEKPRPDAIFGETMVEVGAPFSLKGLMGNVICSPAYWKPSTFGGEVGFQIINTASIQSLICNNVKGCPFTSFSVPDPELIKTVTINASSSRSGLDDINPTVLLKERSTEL", "experiment": "as §2", "design": "substrate with concentration 0.3 uM Arachidonic acid, incubation time 15 min, incubation temperature 37 C"}, "[7]": {"molecular_target": "T2, Alpha-2A adrenergic receptor (Homo sapiens) (UniProt P08913)", "T2 sequence (whole entry)": "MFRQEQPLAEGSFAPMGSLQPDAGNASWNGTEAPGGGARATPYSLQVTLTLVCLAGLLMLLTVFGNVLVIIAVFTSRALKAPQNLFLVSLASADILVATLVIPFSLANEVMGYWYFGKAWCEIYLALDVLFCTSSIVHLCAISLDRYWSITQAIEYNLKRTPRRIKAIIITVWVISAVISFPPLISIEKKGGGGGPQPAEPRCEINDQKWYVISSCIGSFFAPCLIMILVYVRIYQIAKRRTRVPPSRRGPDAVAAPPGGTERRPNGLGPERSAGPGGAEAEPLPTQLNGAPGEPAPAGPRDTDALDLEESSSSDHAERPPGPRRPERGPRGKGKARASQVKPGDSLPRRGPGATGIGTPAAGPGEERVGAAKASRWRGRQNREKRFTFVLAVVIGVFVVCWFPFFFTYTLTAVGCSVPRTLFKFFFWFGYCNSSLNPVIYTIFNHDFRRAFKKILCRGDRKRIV", "experiment": "(§3) Adrenergic alpha2A Eurofins-Panlabs radioligand binding assay", "design": "ligand concentration 1 nM, non-specific ligand with concentration 10 µM WB-4101, incubation time 60 min, incubation temperature 25 °C"}, "[8]": {"molecular_target": "Alpha-2A adrenergic receptor (Homo sapiens, UniProt P08913)", "experiment": "as §3", "design": "ligand concentration 1 nM, non-specific ligand with concentration 10 µM WB-4101, incubation time 60 min, incubation temperature 25 °C"}, "[9]": {"molecular_target": "T3, Alpha-2B adrenergic receptor (Homo sapiens) (UniProt P18089)", "T3 sequence (whole entry)": "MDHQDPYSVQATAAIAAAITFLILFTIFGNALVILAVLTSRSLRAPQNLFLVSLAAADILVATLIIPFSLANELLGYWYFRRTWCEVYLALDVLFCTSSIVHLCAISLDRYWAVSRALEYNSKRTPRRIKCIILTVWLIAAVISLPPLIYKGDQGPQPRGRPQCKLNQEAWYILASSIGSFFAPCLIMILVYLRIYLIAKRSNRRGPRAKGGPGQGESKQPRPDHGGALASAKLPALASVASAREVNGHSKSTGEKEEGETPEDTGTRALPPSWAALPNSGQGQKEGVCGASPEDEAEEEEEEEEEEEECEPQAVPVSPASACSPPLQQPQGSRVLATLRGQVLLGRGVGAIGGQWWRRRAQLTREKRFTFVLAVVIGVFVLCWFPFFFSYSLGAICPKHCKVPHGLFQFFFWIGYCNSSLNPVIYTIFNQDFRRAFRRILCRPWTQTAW", "settings": "Compound concentration 10.0 uM"}, "Homo sapiens": {"organism": "Homo sapiens", "experiment": "Inhibition of Phosphodiesterase PDE4 at compound concentration of 10.0 uM in the Eurofins-Panlabs enzyme assay (Eurofins_assay_154000)", "assay_type": "protein assay", "design": "substrate with concentration 1.01 uM [3 H]cAMP + cAMP, incubation time 20 min, incubation temperature 25 C"}, "Caspase-3 (Homo sapiens)": {"molecular_target": "Caspase-3 (Homo sapiens) (UniProt P42574)", "sequence (P42574 29-175 limits assumed)": "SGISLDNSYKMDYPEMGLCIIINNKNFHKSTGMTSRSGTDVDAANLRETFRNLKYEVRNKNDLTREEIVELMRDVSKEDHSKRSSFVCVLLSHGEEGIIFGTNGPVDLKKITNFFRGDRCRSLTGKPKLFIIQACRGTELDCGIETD", "sequence (P42574 176-277 limits assumed)": "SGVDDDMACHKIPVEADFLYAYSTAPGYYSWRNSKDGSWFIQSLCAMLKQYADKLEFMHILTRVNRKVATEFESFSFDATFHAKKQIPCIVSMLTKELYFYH", "experiment": "Peptidase, CASP3 (Caspase 3) Eurofins-Panlabs enzyme assay", "settings": "Compound concentration 10.0 uM"}, "[10]": {"molecular_target": "Somatostatin receptor type 5 (Homo sapiens) (UniProt P35346)", "sequence (P35346 whole entry)": "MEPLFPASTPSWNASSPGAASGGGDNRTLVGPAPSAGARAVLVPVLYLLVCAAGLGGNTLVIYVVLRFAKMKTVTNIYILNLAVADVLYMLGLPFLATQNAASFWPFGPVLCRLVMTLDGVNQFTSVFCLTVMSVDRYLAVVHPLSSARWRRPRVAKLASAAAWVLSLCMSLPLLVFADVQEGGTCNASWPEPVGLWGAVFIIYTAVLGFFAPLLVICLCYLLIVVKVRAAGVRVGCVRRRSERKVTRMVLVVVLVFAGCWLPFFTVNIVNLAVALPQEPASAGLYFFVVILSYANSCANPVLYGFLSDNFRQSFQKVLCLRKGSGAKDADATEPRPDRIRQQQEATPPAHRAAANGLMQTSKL", "experiment": "Somatostatin sst5 Eurofins-Panlabs radioligand binding assay", "settings": "Compound concentration 10.0 uM"}, "[11]": {"molecular_target": "Polyunsaturated fatty acid lipoxygenase ALOX12 (Homo sapiens) (UniProt P18054)", "sequence (P18054 whole entry)": "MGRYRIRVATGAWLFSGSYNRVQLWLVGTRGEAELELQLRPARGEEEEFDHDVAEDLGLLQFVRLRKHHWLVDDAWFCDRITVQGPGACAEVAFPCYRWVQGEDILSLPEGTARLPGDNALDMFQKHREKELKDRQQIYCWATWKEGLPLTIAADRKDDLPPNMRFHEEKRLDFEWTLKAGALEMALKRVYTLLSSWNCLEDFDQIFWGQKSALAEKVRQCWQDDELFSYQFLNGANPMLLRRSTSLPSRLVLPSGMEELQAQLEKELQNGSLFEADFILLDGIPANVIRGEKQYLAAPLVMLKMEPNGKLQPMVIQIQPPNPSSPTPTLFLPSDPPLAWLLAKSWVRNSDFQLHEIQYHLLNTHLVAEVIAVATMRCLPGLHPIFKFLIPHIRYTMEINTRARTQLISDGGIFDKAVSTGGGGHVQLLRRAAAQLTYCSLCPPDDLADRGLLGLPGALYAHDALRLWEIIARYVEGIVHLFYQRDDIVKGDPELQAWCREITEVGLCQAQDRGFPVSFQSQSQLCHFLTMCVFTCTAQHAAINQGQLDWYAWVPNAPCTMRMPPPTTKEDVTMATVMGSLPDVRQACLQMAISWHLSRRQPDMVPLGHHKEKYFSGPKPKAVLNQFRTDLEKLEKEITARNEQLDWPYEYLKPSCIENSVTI", "experiment": "Lipoxygenase 12-LO Eurofins-Panlabs enzyme assay", "design": "substrate with concentration", "settings": "Compound concentration 10.0 uM"}, "[12]": {"molecular_target": "Galanin receptor type 2 (Homo sapiens) (UniProt O43603)", "sequence (O43603 whole entry)": "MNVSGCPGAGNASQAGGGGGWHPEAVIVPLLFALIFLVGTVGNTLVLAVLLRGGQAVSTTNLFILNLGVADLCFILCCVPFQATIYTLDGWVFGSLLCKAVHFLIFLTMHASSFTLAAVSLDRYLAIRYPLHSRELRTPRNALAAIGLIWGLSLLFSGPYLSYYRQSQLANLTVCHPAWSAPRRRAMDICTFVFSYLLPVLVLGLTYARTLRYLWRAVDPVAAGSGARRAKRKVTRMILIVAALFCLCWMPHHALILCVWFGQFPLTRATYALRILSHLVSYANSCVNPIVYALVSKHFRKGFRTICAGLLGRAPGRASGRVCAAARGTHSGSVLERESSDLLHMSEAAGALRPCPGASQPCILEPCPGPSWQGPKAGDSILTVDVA", "experiment": "Galanin GAL2 Eurofins-Panlabs radioligand binding assay", "design": "ligand concentration 0.02 nM", "settings": "Compound concentration 10.0 uM"}, "[13]": {"molecular_target": "Vasopressin V2 receptor (Homo sapiens) (UniProt P30518)", "experiment": "Vasopressin V2 Eurofins-Panlabs radioligand binding assay", "design": "ligand concentration 0.5 nM", "settings": "Compound concentration 10.0 uM"}, "[14]": {"molecular_target": "Oxytocin receptor (Homo sapiens) (UniProt P30559)", "experiment": "Oxytocin Eurofins-Panlabs radioligand binding assay", "settings": "Compound concentration 10.0 uM"}, "D(1B) dopamine receptor": {"molecular_target": "D(1B) dopamine receptor (Homo sapiens, UniProt P21918)", "sequence (P21918 whole entry)": "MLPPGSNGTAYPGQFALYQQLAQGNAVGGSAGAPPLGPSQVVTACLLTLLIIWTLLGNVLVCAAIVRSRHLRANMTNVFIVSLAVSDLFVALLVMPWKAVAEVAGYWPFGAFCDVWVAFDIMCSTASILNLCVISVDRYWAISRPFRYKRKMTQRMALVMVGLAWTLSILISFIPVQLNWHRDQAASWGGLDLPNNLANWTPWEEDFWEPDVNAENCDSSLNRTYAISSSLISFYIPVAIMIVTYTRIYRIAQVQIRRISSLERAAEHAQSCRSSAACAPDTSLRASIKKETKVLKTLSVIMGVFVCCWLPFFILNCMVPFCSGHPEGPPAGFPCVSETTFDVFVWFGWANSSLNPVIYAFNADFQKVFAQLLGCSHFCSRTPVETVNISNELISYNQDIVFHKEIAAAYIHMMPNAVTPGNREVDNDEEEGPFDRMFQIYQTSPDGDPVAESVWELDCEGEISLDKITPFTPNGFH", "experiment": "Dopamine D5 Eurofins-Panlabs radioligand binding assay", "settings": "concentration not given here"}, "[15]": {"molecular_target": "Prostaglandin F2-alpha receptor (Homo sapiens) (UniProt P43088)", "sequence (P43088 whole entry)": "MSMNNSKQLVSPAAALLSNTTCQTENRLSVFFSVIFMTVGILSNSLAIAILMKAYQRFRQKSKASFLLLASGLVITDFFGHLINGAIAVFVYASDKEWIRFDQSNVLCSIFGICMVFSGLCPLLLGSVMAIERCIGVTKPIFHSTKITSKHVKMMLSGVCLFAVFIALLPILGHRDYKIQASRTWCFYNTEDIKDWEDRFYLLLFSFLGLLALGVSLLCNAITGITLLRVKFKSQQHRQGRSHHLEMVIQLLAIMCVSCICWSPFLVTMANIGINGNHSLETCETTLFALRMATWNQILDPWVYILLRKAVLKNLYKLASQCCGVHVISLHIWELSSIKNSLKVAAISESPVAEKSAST", "experiment": "Prostanoid FP Eurofins-Panlabs radioligand binding assay", "design": "ligand concentration 0.95 nM", "settings": "Compound concentration 10.0 uM"}, "Insulin receptor": {"molecular_target": "Insulin receptor (Homo sapiens, UniProt P06213)", "sequence (P06213 28-758 limits assumed)": "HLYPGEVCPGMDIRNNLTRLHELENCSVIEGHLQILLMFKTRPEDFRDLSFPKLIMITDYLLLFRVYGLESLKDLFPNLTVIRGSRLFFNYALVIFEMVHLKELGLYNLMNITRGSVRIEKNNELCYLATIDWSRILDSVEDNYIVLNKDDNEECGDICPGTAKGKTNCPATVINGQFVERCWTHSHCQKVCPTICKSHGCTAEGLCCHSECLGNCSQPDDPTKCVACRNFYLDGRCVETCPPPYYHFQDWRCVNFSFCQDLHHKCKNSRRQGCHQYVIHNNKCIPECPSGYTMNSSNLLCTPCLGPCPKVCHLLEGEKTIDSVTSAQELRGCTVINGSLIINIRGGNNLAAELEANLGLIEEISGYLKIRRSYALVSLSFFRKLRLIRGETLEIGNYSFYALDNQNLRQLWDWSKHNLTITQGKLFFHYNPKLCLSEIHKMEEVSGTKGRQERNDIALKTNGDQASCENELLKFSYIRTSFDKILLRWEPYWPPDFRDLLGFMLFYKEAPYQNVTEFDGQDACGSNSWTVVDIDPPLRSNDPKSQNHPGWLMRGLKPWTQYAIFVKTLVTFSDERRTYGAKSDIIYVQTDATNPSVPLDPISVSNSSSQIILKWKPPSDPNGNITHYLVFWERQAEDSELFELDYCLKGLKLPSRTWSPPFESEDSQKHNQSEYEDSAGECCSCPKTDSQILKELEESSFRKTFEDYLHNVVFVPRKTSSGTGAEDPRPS", "sequence (P06213 763-1382 limits assumed)": "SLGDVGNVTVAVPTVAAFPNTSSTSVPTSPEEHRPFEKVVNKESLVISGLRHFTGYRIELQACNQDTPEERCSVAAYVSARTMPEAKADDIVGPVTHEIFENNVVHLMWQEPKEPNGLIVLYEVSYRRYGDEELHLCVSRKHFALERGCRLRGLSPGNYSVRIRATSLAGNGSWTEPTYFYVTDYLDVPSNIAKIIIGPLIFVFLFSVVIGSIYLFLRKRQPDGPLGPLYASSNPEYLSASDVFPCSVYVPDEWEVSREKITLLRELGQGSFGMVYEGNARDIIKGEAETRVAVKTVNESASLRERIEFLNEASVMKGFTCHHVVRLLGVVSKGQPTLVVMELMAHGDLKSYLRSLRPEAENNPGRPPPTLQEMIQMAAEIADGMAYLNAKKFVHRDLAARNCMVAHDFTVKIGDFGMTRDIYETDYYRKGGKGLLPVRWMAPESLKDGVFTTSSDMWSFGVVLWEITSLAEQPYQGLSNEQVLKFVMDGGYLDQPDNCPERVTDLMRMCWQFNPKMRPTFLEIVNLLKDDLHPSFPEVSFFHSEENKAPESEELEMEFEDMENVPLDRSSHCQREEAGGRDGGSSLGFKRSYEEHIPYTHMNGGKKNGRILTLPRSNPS", "settings": "Rattus norvegicus; Compound concentration 10.0 uM"}, "[16]": {"experiment": "Inhibition of Atrial Natriuretic Factor (ANF) at 10 µM in the Eurofins-Panlabs radioligand binding assay (Eurofins_assay_211000)", "settings": "Cavia porcellus"}, "[17]": {"molecular_target": "Neprilysin (Homo sapiens) (UniProt P08473)", "sequence (P08473 whole entry)": "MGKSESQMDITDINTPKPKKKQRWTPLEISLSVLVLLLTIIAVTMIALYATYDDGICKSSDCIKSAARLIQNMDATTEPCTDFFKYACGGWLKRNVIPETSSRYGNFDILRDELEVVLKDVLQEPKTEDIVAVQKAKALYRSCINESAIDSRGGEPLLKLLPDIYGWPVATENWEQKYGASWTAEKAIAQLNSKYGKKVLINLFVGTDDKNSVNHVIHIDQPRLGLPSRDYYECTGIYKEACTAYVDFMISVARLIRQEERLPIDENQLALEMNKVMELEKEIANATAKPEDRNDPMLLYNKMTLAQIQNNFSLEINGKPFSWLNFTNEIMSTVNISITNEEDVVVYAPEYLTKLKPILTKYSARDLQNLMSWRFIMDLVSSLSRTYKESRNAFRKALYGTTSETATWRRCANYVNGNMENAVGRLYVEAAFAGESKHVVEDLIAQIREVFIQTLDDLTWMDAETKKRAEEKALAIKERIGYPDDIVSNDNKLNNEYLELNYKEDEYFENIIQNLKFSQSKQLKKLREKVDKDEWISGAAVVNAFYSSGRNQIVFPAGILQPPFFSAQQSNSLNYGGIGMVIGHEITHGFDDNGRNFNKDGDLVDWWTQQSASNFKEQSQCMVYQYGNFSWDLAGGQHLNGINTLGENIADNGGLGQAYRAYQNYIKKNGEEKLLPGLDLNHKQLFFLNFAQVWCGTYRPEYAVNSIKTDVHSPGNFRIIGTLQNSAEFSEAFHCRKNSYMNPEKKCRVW", "experiment": "Peptidase, Metalloproteinase, Neutral Endopeptidase Eurofins-Panlabs enzyme assay", "settings": "Compound concentration 10.0 uM"}, "[18]": {"molecular_target": "Substance-P receptor (Homo sapiens) (UniProt P25103)", "experiment": "Tachykinin NK1 Eurofins-Panlabs radioligand binding assay", "settings": "Compound concentration 10.0 uM"}, "[19]": {"settings": "Compound concentration 100.0 uM"}}}
{"smiles": "O=C(O)c1cc(-c2ccc(C3CCNCC3)cc2)c2ccc(-c3ccc(C(F)(F)F)cc3)cc2c1", "note": "[PPTN]", "values": [{"measurement": "inhibition", "setting": "[1]", "result": 4, "unit": "%"}, {"measurement": "inhibition", "setting": "[2]", "result": 9, "unit": "%"}, {"measurement": "inhibition", "setting": "Bos taurus; Compound concentration 0.1 uM", "result": 2, "unit": "%"}, {"measurement": "inhibition", "setting": "Bos taurus; Compound concentration 1.0 uM", "result": 4, "unit": "%"}, {"measurement": "inhibition", "setting": "Bos taurus; Compound concentration 10.0 uM", "result": 35, "unit": "%"}, {"measurement": "inhibition", "setting": "Bos taurus; [19]", "result": 66, "unit": "%"}, {"measurement": "IC50", "setting": "[3]", "result": 32.9, "unit": "µM"}, {"measurement": "inhibition", "setting": "[4]", "result": 19, "unit": "%"}, {"measurement": "IC50", "setting": "[5]", "result": 8.71, "unit": "µM"}, {"measurement": "inhibition", "setting": "[6]; Compound concentration 0.01 uM", "result": -3, "unit": "%"}, {"measurement": "inhibition", "setting": "[6]; Compound concentration 0.1 uM", "result": 0, "unit": "%"}, {"measurement": "inhibition", "setting": "[6]; Compound concentration 1.0 uM", "result": -1, "unit": "%"}, {"measurement": "inhibition", "setting": "[6]; Compound concentration 10.0 uM", "result": 70, "unit": "%"}, {"measurement": "inhibition", "setting": "[7]; Compound concentration 0.01 uM", "result": 9, "unit": "%"}, {"measurement": "inhibition", "setting": "[7]; Compound concentration 0.1 uM", "result": 13, "unit": "%"}, {"measurement": "inhibition", "setting": "[7]; Compound concentration 1.0 uM", "result": 11, "unit": "%"}, {"measurement": "inhibition", "setting": "[7]; Compound concentration 10.0 uM", "result": 78, "unit": "%"}, {"measurement": "IC50", "setting": "[8]", "result": 4.07, "unit": "µM"}, {"measurement": "Ki", "setting": "[8]", "result": 1.53, "unit": "µM"}, {"measurement": "inhibition", "setting": "[9]", "result": -1, "unit": "%"}, {"measurement": "inhibition", "setting": "Homo sapiens; Compound concentration 0.1 uM", "result": -6, "unit": "%"}, {"measurement": "inhibition", "setting": "Homo sapiens; Compound concentration 1.0 uM", "result": 0, "unit": "%"}, {"measurement": "inhibition", "setting": "Homo sapiens; Compound concentration 10.0 uM", "result": 24, "unit": "%"}, {"measurement": "inhibition", "setting": "Homo sapiens; [19]", "result": 49, "unit": "%"}, {"measurement": "inhibition", "setting": "Caspase-3 (Homo sapiens)", "result": 3, "unit": "%"}, {"measurement": "inhibition", "setting": "[10]", "result": 20, "unit": "%"}, {"measurement": "inhibition", "setting": "[11]", "result": 30, "unit": "%"}, {"measurement": "inhibition", "setting": "[12]", "result": 31, "unit": "%"}, {"measurement": "inhibition", "setting": "[13]", "result": 28, "unit": "%"}, {"measurement": "inhibition", "setting": "[14]", "result": 0, "unit": "%"}, {"measurement": "inhibition", "setting": "D(1B) dopamine receptor", "result": 7, "unit": "%"}, {"measurement": "inhibition", "setting": "[15]", "result": 15, "unit": "%"}, {"measurement": "inhibition", "setting": "Insulin receptor", "result": -8, "unit": "%"}, {"measurement": "inhibition at 10 µM", "setting": "[16]", "result": "-1% (not active)"}, {"measurement": "inhibition", "setting": "[17]", "result": 1, "unit": "%"}, {"measurement": "inhibition", "setting": "[18]", "result": 1, "unit": "%"}]}
